Columns and labels:
Format in all cases: biochemical
PDE1B = PDE1B (Homo sapiens (Human), UniProt Q01064); assay: PDE1 inhibition assay, PDE1B; settings: for IC50: 15 nM tritium labelled cAMP, 1 hr at room temperature, SPA beads, read-out: PDE1 B, IC50
Description: (§1) PDE1A, PDE1B and PDE1C assays were performed as follows: the assays were performed in 60 μL samples containing a fixed amount of the PDE1 enzyme (sufficient to convert 20-25% of the cyclic nucleotide substrate), a buffer (50 mM HEPES (4-(2-hydroxyethyl)-1-piperazineethanesulfonic acid) pH 7.6; 10 mM MgCl2; 0.02% Tween20), 0.1 mg/ml BSA (bovine serum albumin), 15 nM tritium labelled cAMP and varying amounts of inhibitors. Reactions were initiated by addition of the cyclic nucleotide substrate, and reactions were allowed to proceed for 1 hr at room temperature before being terminated through mixing with 20 μL (0.2 mg) yttrium silicate SPA beads (PerkinElmer). The beads were allowed to settle for 1 hour in the dark before the plates were counted in a Wallac 1450 Microbeta counter. The measured signals were converted to activity relative to an uninhibited control (100%) and IC50 values were calculated using XIFit (model 205, IDBS).

PDE1C = PDE1C (Homo sapiens (Human), UniProt Q14123); assay: PDE1 inhibition assay, PDE1C; settings: for inhibition at 10 µM: @ 10 μM compound, read-out: PDE1 C, % inhibition @ 10 μM; for IC50: 15 nM tritium labelled cAMP, 1 hr at room temperature, SPA beads, read-out: PDE1 C, IC50
PDE1C, sequence (Q14123 whole entry): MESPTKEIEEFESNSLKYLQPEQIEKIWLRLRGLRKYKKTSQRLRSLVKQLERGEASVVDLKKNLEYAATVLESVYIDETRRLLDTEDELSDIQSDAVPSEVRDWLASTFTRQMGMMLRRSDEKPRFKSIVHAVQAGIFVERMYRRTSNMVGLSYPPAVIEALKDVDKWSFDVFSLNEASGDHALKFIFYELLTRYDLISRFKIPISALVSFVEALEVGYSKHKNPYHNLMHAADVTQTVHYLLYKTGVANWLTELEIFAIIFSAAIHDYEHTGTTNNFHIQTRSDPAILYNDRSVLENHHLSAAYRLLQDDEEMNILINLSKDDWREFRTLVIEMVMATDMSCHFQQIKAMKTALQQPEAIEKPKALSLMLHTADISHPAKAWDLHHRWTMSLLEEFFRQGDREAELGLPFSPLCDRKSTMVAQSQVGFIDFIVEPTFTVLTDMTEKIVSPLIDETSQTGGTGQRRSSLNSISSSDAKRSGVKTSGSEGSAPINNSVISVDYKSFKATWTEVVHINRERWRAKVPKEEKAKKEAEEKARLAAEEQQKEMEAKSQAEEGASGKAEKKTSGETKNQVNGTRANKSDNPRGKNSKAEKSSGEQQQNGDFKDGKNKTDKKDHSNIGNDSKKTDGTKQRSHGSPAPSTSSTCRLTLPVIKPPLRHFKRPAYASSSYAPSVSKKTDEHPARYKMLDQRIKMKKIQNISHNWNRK
Description: as §1

PDE1A = PDE1A (Homo sapiens (Human), UniProt P54750); assay: PDE1 inhibition assay, PDE1A; settings: for IC50: 15 nM tritium labelled cAMP, 1 hr at room temperature, SPA beads; for inhibition at 10 µM: @ 10 μM compound
PDE1A, sequence (P54750 whole entry): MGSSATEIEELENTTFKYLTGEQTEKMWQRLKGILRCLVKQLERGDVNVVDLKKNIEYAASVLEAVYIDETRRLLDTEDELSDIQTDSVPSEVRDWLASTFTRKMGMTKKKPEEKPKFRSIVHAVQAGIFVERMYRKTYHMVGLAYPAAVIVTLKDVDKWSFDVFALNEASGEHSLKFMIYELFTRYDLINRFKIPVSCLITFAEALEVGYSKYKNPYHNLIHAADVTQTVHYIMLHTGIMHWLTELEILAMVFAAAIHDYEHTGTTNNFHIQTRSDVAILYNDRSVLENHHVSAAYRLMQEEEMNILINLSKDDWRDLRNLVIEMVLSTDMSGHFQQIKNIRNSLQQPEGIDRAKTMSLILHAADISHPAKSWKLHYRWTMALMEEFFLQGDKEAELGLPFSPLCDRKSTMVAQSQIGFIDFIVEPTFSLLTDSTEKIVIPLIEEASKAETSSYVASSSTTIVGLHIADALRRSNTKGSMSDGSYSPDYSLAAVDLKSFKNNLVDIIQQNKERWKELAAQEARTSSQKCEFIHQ
Description: as §1

PDE1B, sequence (Q01064 whole entry): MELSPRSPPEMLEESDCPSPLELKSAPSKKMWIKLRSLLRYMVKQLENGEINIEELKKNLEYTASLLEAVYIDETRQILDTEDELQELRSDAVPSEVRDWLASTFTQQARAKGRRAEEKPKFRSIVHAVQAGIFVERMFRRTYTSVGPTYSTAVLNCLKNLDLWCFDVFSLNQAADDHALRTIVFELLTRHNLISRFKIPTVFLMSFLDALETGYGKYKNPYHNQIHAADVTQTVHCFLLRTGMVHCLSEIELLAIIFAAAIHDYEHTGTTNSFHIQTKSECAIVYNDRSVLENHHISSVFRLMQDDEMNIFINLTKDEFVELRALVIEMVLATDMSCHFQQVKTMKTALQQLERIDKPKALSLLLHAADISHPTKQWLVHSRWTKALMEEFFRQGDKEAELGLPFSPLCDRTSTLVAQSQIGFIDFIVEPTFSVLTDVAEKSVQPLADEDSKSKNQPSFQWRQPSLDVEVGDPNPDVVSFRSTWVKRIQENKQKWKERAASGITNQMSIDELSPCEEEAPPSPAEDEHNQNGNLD

Row | IC50 (PDE1B) [nM] | inhibition at 10 µM (PDE1C) [%] | IC50 (PDE1A) [nM] | inhibition at 10 µM (PDE1A) [%] | IC50 (PDE1C) [nM] | inhibition at 10 µM (PDE1B; @ 10 μM compound, read-out: PDE1 B, % inhibition @ 10 μM) [%] | Structure (SMILES)
1 | 157 |  | 380 |  | 580 |  | CCOc1nccc(C)c1-c1cc(N[C@@H]2CCOC2)c2c(cnn2C(C)C)n1 [Example 34, 5-(2-ethoxy-4-methyl-3-pyridyl)-1-isopropyl-N-[(3R)-tetrahydrofuran-3-yl]pyrazolo[4,3-b]pyridin-7-amine]
2 | 1890 | 59 |  | 61 |  |  | Cc1cccnc1-c1cc(N[C@@H]2CCOC2)c2c(cnn2C(C)C)n1 [Example 39, 1-isopropyl-5-(3-methyl-2-pyridyl)-N-[(3R)-tetrahydrofuran-3-yl]pyrazolo[4,3-b]pyridin-7-amine]
3 | 2140 | 26 |  | 81 |  |  | COc1cccnc1-c1cc(N[C@@H]2CCOC2)c2c(cnn2C(C)C)n1 [Example 40, 1-isopropyl-5-(3-methoxy-2-pyridyl)-N-[(3R)-tetrahydrofuran-3-yl]pyrazolo[4,3-b]pyridin-7-amine]
4 | 546 | 68 | 1570 |  |  |  | CC(C)n1ncc2nc(-c3cccc4c3OCCO4)cc(N[C@@H]3CCOC3)c21 [Example 42, 5-(2,3-dihydro-1,4-benzodioxin-5-yl)-1-isopropyl-N-[(3R)-tetrahydrofuran-3-yl]pyrazolo[4,3-b]pyridin-7-amine]
5 | 4010 | 47 |  | 33 |  |  | CC(C)n1ncc2nc(-c3cncc(C#N)c3)cc(N[C@@H]3CCOC3)c21 [Example 44, 5-[1-isopropyl-7-[[(3R)-tetrahydrofuran-3-yl]amino]pyrazolo[4,3-b]pyridin-5-yl]pyridine-3-carbonitrile]
6 | 599 |  | 1520 |  | 1550 |  | COc1cncc(-c2cc(N[C@@H]3CCOC3)c3c(cnn3C(C)C)n2)c1 [Example 47, 1-isopropyl-5-(5-methoxy-3-pyridyl)-N-[(3R)-tetrahydrofuran-3-yl]pyrazolo[4,3-b]pyridin-7-amine]
7 | 2670 |  |  | 43 | 1870 |  | COc1ncncc1-c1cc(N[C@@H]2CCOC2)c2c(cnn2C(C)C)n1 [Example 49, 1-isopropyl-5-(4-methoxypyrimidin-5-yl)-N-[(3R)-tetrahydrofuran-3-yl]pyrazolo[4,3-b]pyridin-7-amine]
8 | 1320 |  |  | 56 | 1820 |  | COc1ncc(C)cc1-c1cc(N[C@@H]2CCOC2)c2c(cnn2C(C)C)n1 [Example 52, 1-isopropyl-5-(2-methoxy-5-methyl-3-pyridyl)-N-[(3R)-tetrahydrofuran-3-yl]pyrazolo[4,3-b]pyridin-7-amine]
9 | 299 | 61 |  | 73 |  |  | CCOc1ccccc1-c1cc(N[C@@H]2CCOC2)c2c(cnn2C(C)C)n1 [Example 53, 5-(2-ethoxyphenyl)-1-isopropyl-N-[(3R)-tetrahydrofuran-3-yl]pyrazolo[4,3-b]pyridin-7-amine]

The remaining lines, values behind:

Row | Structure (SMILES) | IC50 (PDE1B) [nM] | inhibition at 10 µM (PDE1C) [%] | IC50 (PDE1A) [nM] | inhibition at 10 µM (PDE1A) [%] | IC50 (PDE1C) [nM] | inhibition at 10 µM (PDE1B; @ 10 μM compound, read-out: PDE1 B, % inhibition @ 10 μM) [%]
10 | CCCn1ncc2nc(-c3cccnc3OCC)cc(N3CCCC3)c21 [Example 18, 5-(2-ethoxy-3-pyridyl)-1-propyl-7-pyrrolidin-1-yl-pyrazolo[4,3-b]pyridine] | 336 | 64 | 637 |  |  | 
11 | CC(C)n1ncc2nc(-c3cccnc3)cc(N[C@@H]3CCOC3)c21 [Example 25, 1-isopropyl-5-(3-pyridyl)-N-[(3R)-tetrahydrofuran-3-yl]pyrazolo[4,3-b]pyridin-7-amine] | 648 | 65 | 2160 |  |  | 
12 | CC(C)n1ncc2nc(-c3cncnc3)cc(N[C@@H]3CCOC3)c21 [Example 26, 1-isopropyl-5-pyrimidin-5-yl-N-[(3R)-tetrahydrofuran-3-yl]pyrazolo[4,3-b]pyridin-7-amine] | 3650 | 70 |  | 54 |  | 
13 | CC(C)n1ncc2nc(-c3ccccc3)cc(N[C@@H]3CCOC3)c21 [Example 27, 1-isopropyl-5-phenyl-N-[(3R)-tetrahydrofuran-3-yl]pyrazolo[4,3-b]pyridin-7-amine] | 690 |  | 2000 |  | 3550 | 
14 | COc1ncccc1-c1cc(N[C@@H]2CCOC2)c2c(cnn2C(C)C)n1 [Example 28, 1-isopropyl-5-(2-methoxy-3-pyridyl)-N-[(3R)-tetrahydrofuran-3-yl]pyrazolo[4,3-b]pyridin-7-amine] | 124 |  | 533 |  | 1080 | 
15 | COc1nc(C)ccc1-c1cc(N[C@@H]2CCOC2)c2c(cnn2C(C)C)n1 [Example 29, 1-isopropyl-5-(2-methoxy-6-methyl-3-pyridyl)-N-[(3R)-tetrahydrofuran-3-yl]pyrazolo[4,3-b]pyridin-7-amine] | 1690 | 68 |  | 31 |  | 
16 | COc1cnccc1-c1cc(N[C@@H]2CCOC2)c2c(cnn2C(C)C)n1 [Example 30, 1-isopropyl-5-(3-methoxy-4-pyridyl)-N-[(3R)-tetrahydrofuran-3-yl]pyrazolo[4,3-b]pyridin-7-amine] | 236 |  | 1550 |  | 2560 | 
17 | COc1ccncc1-c1cc(N[C@@H]2CCOC2)c2c(cnn2C(C)C)n1 [Example 31, 1-isopropyl-5-(4-methoxy-3-pyridyl)-N-[(3R)-tetrahydrofuran-3-yl]pyrazolo[4,3-b]pyridin-7-amine] | 1230 | 76 |  | 63 |  | 
18 | CC(C)n1ncc2nc(-c3cccc4c3OCO4)cc(N[C@@H]3CCOC3)c21 [Example 32, 5-(1,3-benzodioxol-4-yl)-1-isopropyl-N-[(3R)-tetrahydrofuran-3-yl]pyrazolo[4,3-b]pyridin-7-amine] | 284 |  | 1290 |  | 1200 | 
19 | CCOc1ccc(-c2cc(N[C@@H]3CCOC3)c3c(cnn3C(C)C)n2)cc1 [Example 33, 5-(4-ethoxyphenyl)-1-isopropyl-N-[(3R)-tetrahydrofuran-3-yl]pyrazolo[4,3-b]pyridin-7-amine] |  | 24 |  | 20 |  | 46
20 | CC(C)n1ncc2nc(-c3cnn4ccccc34)cc(N[C@@H]3CCOC3)c21 [Example 35, 1-isopropyl-5-pyrazolo[1,5-a]pyridin-3-yl-N-[(3R)-tetrahydrofuran-3-yl]pyrazolo[4,3-b]pyridin-7-amine] | 604 |  | 1620 |  | 2140 | 
21 | CC(C)n1ncc2nc(-c3cccnc3OC(C)(C)C)cc(N[C@@H]3CCOC3)c21 [Example 36, 5-(2-tert-butoxy-3-pyridyl)-1-isopropyl-N-[(3R)-tetrahydrofuran-3-yl]pyrazolo[4,3-b]pyridin-7-amine] | 91 |  | 260 |  | 3230 | 
22 | COc1cccc(Cc2cc(N[C@@H]3CCOC3)c3c(cnn3C(C)C)n2)c1 [Example 37, 1-isopropyl-5-[(3-methoxyphenyl)methyl]-N-[(3R)-tetrahydrofuran-3-yl]pyrazolo[4,3-b]pyridin-7-amine] | 1340 |  |  | 60 | 1680 | 
23 | COc1cc(-c2cc(N[C@@H]3CCOC3)c3c(cnn3C(C)C)n2)c(OC)cn1 [Example 38, 5-(2,5-dimethoxy-4-pyridyl)-1-isopropyl-N-[(3R)-tetrahydrofuran-3-yl]pyrazolo[4,3-b]pyridin-7-amine] | 308 |  | 1160 |  | 566 | 
24 | CC(C)n1ncc2nc(-c3ccccc3C#N)cc(N[C@@H]3CCOC3)c21 [Example 41, 2-[1-isopropyl-7-[[(3R)-tetrahydrofuran-3-yl]amino]pyrazolo[4,3-b]pyridin-5-yl]benzonitrile] | 248 |  | 951 |  | 1710 | 
25 | CC(C)n1ncc2nc(Cc3ccc(F)cc3)cc(N[C@@H]3CCOC3)c21 [Example 43, 5-[(4-fluorophenyl)methyl]-1-isopropyl-N-[(3R)-tetrahydrofuran-3-yl]pyrazolo[4,3-b]pyridin-7-amine] | 1220 |  | 2860 |  | 621 | 
26 | COCc1cccc(-c2cc(N[C@@H]3CCOC3)c3c(cnn3C(C)C)n2)c1 [Example 45, 1-isopropyl-5-[3-(methoxymethyl)phenyl]-N-[(3R)-tetrahydrofuran-3-yl]pyrazolo[4,3-b]pyridin-7-amine] | 341 | 72 | 2480 |  |  | 
27 | CC(C)n1ncc2nc(-c3cccc(OC(F)F)c3)cc(N[C@@H]3CCOC3)c21 [Example 48, 5-[3-(difluoromethoxy)phenyl]-1-isopropyl-N-[(3R)-tetrahydrofuran-3-yl]pyrazolo[4,3-b]pyridin-7-amine] | 384 |  | 1100 |  | 1730 | 
28 | COc1cnc(C)c(-c2cc(N[C@@H]3CCOC3)c3c(cnn3C(C)C)n2)c1 [Example 51, 1-isopropyl-5-(5-methoxy-2-methyl-3-pyridyl)-N-[(3R)-tetrahydrofuran-3-yl]pyrazolo[4,3-b]pyridin-7-amine] | 3250 |  |  | 20 | 3850 | 

— US11535611B2, “Pyrazolo[3,4-B]pyridines and imidazo[1,5-B]pyridazines as PDE1 inhibitors” (H. Lundbeck A/S, priority 2017, dated 2022)
